Measurements reported in US6465625B1, “Taxol derivatives” (Albany Molecular Research, Inc., priority 1995, dated 2002).

Tests used:
[1] = tested on: HL-60 cells, a promyelocytic leukemia cell line; experiment: cytotoxicity against HL-60 cells (trypan blue exclusion, cell counts after 72 h); type: cell-based; details: 100 nM to 0.1 nM, 0.5% DMSO
Protocol: (§1) 18. To verify their potential as prodrugs, two taxol esters, taxol 2′-chloroacetate (2) and taxol 2′-acrylate (3), were tested for cytotoxicity against HL-60 cells, a promyelocytic leukemia cell line, and MOLT-4 cells, a lymphoblastic leukemia cell line.^20 Both derivatives had IC50 values about ten times higher than that of taxol for each cell line.
(§2) 20. Cells were seeded in 96-well plates at densities of 30,000 cells/well and grown in RPMI-1640 medium containing 10% bovine calf serum at 37° C. for 24 h. The medium was then replaced with fresh medium containing the taxol esters (excluding taxol, which had been removed by preparative TLC) dissolved in DMSO at final concentrations ranging from 100 nM to 0.1 nM. The final concentration of DMSO in the cell medium was 0.5%. After 72 h, samples were removed for cell counts. Total cell number and viability were determined by trypan blue exclusion and manual cell counting on a hemacytometer.

[2] = tested on: MOLT-4 cells, a lymphoblastic leukemia cell line; experiment: cytotoxicity against MOLT-4 cells (trypan blue exclusion, cell counts after 72 h); type: cell-based; details: 100 nM to 0.1 nM, 0.5% DMSO
Protocol: as §1, §2

solubility in water = details: for solubility greater than that of taxol: relative to taxol, rounded figures of b160; for increase of water solubility relative to taxol: relative to taxol (<4 μg/ml)

solubility (solubility in water; water)	SMILES	IC50 relative to that of taxol [1]	IC50 relative to that of taxol [2]	solubility greater than that of taxol (solubility in water)	increase of water solubility relative to taxol (solubility in water; water)
	CC(=O)OC1C(=O)C2(C)C(O)CC3OCC3(OC(C)=O)C2C(OC(=O)c2ccccc2)C2(O)CC(OC(=O)C(OC(=O)CCl)C(NC(=O)c3ccccc3)c3ccccc3)C(C)=C1C2(C)C (stereo not drawn) [compound 2, taxol 2′-chloroacetate]	about ten	about ten		
	C=CC(=O)OC(C(=O)OC1CC2(O)C(OC(=O)c3ccccc3)C3C4(OC(C)=O)COC4CC(O)C3(C)C(=O)C(OC(C)=O)C(=C1C)C2(C)C)C(NC(=O)c1ccccc1)c1ccccc1 (stereo not drawn) [compound 3, Taxol 2′-acrylate]	about ten	about ten		
	CC(=O)O[C@H]1C(=O)[C@@]2(C)C([C@H](OC(=O)c3ccccc3)[C@]3(O)C[C@H](OC(=O)[C@H](OC(=O)CCCCC(=O)OCC4OC(O)C(O)C(O)C4O)[C@@H](NC(=O)c4ccccc4)c4ccccc4)C(C)=C1C3(C)C)[C@]1(OC(C)=O)CO[C@@H]1C[C@@H]2O (stereo partly drawn) [taxol 2′-(adipoyl)glucose, Taxol 2′-(adipoyl) glucose]			60 times	58 fold
	CC(=O)O[C@H]1C(=O)[C@@]2(C)C([C@H](OC(=O)c3ccccc3)[C@]3(O)C[C@H](OC(=O)[C@H](OC(=O)CCCCC(=O)O)[C@@H](NC(=O)c4ccccc4)c4ccccc4)C(C)=C1C3(C)C)[C@]1(OC(C)=O)CO[C@@H]1C[C@@H]2O (stereo partly drawn) [taxol 2′-adipic acid, Taxol 2′-adipic acid]			1,700 times	1625 fold
< 4 µg/mL	CC(=O)O[C@H]1C(=O)[C@@]2(C)[C@H]([C@H](OC(=O)c3ccccc3)[C@]3(O)C[C@H](OC(=O)[C@H](O)[C@@H](NC(=O)c4ccccc4)c4ccccc4)C(C)=C1C3(C)C)[C@]1(OC(C)=O)CO[C@@H]1C[C@@H]2O [taxol]				
